Test results as given in patent publication US12594278B2, “Method for treatment of muscular dystrophy” (CHILDREN'S NATIONAL MEDICAL CENTER, priority 2019, dated 2026).

Assays:
[1] = test system: B6A/J mice; test: Repeat notexin-induced TA injury in batimastat-treated B6A/J mice; format: in vivo, mouse
Method: Whether this effect of batimastat to repress FAP adipogenesis can improve muscle histopathology was tested in vivo. 12Mo B6A/J mice were treated for 10 weeks with batimastat (2 mg/kg i.p. 3× weekly). […] To determine if this reduction in adipogenic replacement was due to an effect on just FAP differentiation or also on FAP proliferation, FAP accumulation was quantified by PDGFRα labeling and no effect of batimastat treatment on FAP number was found (FIG. 12). […] Thus, inhibition of adipogenesis by batimastat is not due to reduced FAP numbers or improved myofiber repair. To further confirm the ability of batimastat to prevent dysferlinopathic muscle from injury-triggered FAP adipogenesis, we employed the repeat notexin-induced TA injury approach which induces significant adipogenic replacement of the muscle (FIG. 6D and FIG. 6E). […] Given that FAP numbers are unaffected by batimastat treatment, it was examined whether these batimastat treatment causes cells to adopt a fibrogenic fate by blocking their adipogenic differentiation. However, no change in intra-muscular fibrosis was observed as a result of batimastat treatment in either the gastrocnemius or injured TA (FIG. 12). […]
Microscopy and Image Analysis. […] Perilipin-1 quantification was performed by thresholding the image to exclude non-specific staining and then calculating the area of each lipid deposit encircled by perlipin-1 (excluding those in the epi- or perimysium) using MetaMorph software (Molecular Devices). The total area encircled by perilipin-1 was calculated for all lipid deposits across the muscle and expressed relative to the total cross-sectional area. PDGFRα and AnxA2 positive area was calculated using CellSens software (Olympus) by thresholding to remove non-specific staining and calculating the total positive area (again, excluding any epi- or perimysial staining) relative to the entire muscle cross-section. […]

[2] = test system: B6A/J mice; test: 10-week batimastat treatment of 12Mo B6A/J mice, gastrocnemius histopathology; format: in vivo, mouse
Method: Whether this effect of batimastat to repress FAP adipogenesis can improve muscle histopathology was tested in vivo. 12Mo B6A/J mice were treated for 10 weeks with batimastat (2 mg/kg i.p. 3× weekly). […] To determine if this reduction in adipogenic replacement was due to an effect on just FAP differentiation or also on FAP proliferation, FAP accumulation was quantified by PDGFRα labeling and no effect of batimastat treatment on FAP number was found (FIG. 12). […] Thus, inhibition of adipogenesis by batimastat is not due to reduced FAP numbers or improved myofiber repair. To further confirm the ability of batimastat to prevent dysferlinopathic muscle from injury-triggered FAP adipogenesis, we employed the repeat notexin-induced TA injury approach which induces significant adipogenic replacement of the muscle (FIG. 6D and FIG. 6E). […] Given that FAP numbers are unaffected by batimastat treatment, it was examined whether these batimastat treatment causes cells to adopt a fibrogenic fate by blocking their adipogenic differentiation. However, no change in intra-muscular fibrosis was observed as a result of batimastat treatment in either the gastrocnemius or injured TA (FIG. 12). Taken together, the above results both confirm the essential nature of FAP adipogenesis for the adipogenic conversion of dysferlinopathic muscle, and highlight the potential of batimastat to arrest the progressive and even late stage adipogenic replacement of dysferlinopathic muscle.
Immunohistochemical Analysis of Muscle Sections. Frozen sections 8 μm thick were cut from human biopsies and the midbelly of mouse muscles. Lipid was visualized using an Oil Red O staining kit (American MasterTech, #KTORO) according to manufacturer's instructions. […]
Microscopy and Image Analysis. […] Perilipin-1 quantification was performed by thresholding the image to exclude non-specific staining and then calculating the area of each lipid deposit encircled by perlipin-1 (excluding those in the epi- or perimysium) using MetaMorph software (Molecular Devices). The total area encircled by perilipin-1 was calculated for all lipid deposits across the muscle and expressed relative to the total cross-sectional area. PDGFRα and AnxA2 positive area was calculated using CellSens software (Olympus) by thresholding to remove non-specific staining and calculating the total positive area (again, excluding any epi- or perimysial staining) relative to the entire muscle cross-section.
For in vivo studies, 12Mo B6A/J mice were treated thrice weekly with batimastat (Sigma-Aldridge, #SML0041), 2 mg/kg i.p. for 10 weeks. At the end of the treatment period, the effect of batimastat on disease pathology was evaluated by quantification of perilipin-1 marked lipid area in the gastrocnemius and compared to untreated controls. […]

[3] = test system: mdx mice; details: previously shown; cited from earlier work
[4] = 12Mo B6A/J mice, 2 mg/kg i.p. 3× weekly for 10 weeks

**Q.** For `CNC(=O)[C@H](Cc1ccccc1)NC(=O)[C@H](CC(C)C)[C@H](CSc1cccs1)C(=O)NO` [batimastat], which “reduction in perilipin-1 positive area in TA following repeat notexin injury” value ([1]; 3 notexin injuries during 10 weeks of batimastat 2 mg/kg i.p. 3× weekly, vs untreated mice) is on record?
**A.** Its value is about 40%.

**Q.** And the “intra-muscular fibrosis in injured TA (Masson's trichrome)” value ([1]; 3 repeat notexin injuries, batimastat 2 mg/kg i.p. 3× weekly for 10 weeks)?
**A.** The value was “no change”.

**Q.** And the “FAP accumulation caused by repeat notexin injuries (PDGFRα)” value ([1]; TA, batimastat 2 mg/kg i.p. 3× weekly for 10 weeks)?
**A.** The value was “did not reduce”.

**Q.** And the “FAP number (PDGFRα labeling) in gastrocnemius” value [2, 4]?
**A.** Its value is “no effect”.

**Q.** And the “extent of myofiber central nucleation” value [2, 4]?
**A.** Its value is “did not decrease”.

**Q.** And the “perilipin-1 labeled area in gastrocnemius” value ([2]; 12Mo B6A/J mice, 2 mg/kg i.p. 3× weekly for 10 weeks, vs untreated mice)?
**A.** The value was “significantly reduced”.

**Q.** And the “intra-muscular fibrosis in gastrocnemius (Masson's trichrome)” value ([2]; batimastat 2 mg/kg i.p. 3× weekly for 10 weeks)?
**A.** The value was “no change”.

**Q.** And the “fibrosis in mdx mice” value [3]?
**A.** Its value is “reduce fibrosis”.

**Q.** What about the “muscle function in mdx mice” value [3] of the same compound?
**A.** Its value is “increase muscle function”.
